Data: patent publication US20260364080A1, “PYRAZOLO-PYRIMIDINONE COMPOUNDS FOR USE IN METHODS OF INHIBITING WEE1 A KINASE” (Acrivon Therapeutics, Inc., priority 2023, published 2026)
pEC50, pIC50: −log10 of the molar value.

What was measured:
[1] = target: T1, recombinant human Wee1A kinase (Homo sapiens, UniProt P30291); assay: Wee1A kinase binding assay (LanthaScreen Eu time-resolved FRET); settings: 30 nM tracer 178, 5 nM Wee1A kinase, 2 nM Eu-labeled antibody; 60 minutes at room temperature; read-out: Wee1A kinase Binding IC50
T1 construct: full length Wee1 kinase was expressed by baculovirus in insect cells; purchased Invitrogen PV3817; host or cells: insect cells (baculovirus)
T1 sequence (P30291 whole entry): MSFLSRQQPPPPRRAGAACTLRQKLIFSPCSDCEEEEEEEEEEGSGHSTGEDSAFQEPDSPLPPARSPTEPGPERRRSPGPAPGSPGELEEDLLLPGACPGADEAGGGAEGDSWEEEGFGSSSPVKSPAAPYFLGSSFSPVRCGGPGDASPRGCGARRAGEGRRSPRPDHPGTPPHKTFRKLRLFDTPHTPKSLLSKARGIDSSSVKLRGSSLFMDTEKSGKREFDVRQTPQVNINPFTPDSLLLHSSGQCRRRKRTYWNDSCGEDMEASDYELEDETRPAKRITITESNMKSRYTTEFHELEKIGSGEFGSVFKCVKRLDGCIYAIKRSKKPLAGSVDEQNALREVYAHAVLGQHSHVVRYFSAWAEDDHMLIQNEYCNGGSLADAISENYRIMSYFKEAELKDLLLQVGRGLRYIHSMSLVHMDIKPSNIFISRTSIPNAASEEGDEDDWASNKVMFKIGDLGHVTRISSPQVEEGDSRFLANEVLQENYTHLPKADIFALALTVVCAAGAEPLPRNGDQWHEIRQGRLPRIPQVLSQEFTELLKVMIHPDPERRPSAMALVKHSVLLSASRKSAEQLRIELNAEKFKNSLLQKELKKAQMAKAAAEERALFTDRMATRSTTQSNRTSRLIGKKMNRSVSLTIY
Outline: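 Full-length, baculovirus-expressed GST-tagged Wee1A (5 nM) was mixed with 2 nM Eu-anti-GST antibody, 30 nM kinase tracer 178 and compound (1% DMSO). Buffer was 50 mM HEPES pH 7.5, 10 mM MgCl2, 1 mM EGTA, 0.01% Brij-35, incubated 60 min at room temperature. TR-FRET 665/615 nm emission ratios from duplicates were curve-fitted.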

[2] = target: T2, Myt1 kinase (recombinant PMYT-1) (Homo sapiens, UniProt Q99640); assay: Myt1 kinase binding assay (LanthaScreen Eu Kinase Binding Assay); settings: 3 nM tracer 178, 2.5 nM PMYT-1, 1 nM Eu-labeled antibody; read-out: Myt1 kinase Binding IC50
T2 construct: full length PMYT-1 was expressed by baculovirus in insect cells; purchased Invitrogen A30984; host or cells: insect cells (baculovirus)
T2 sequence (Q99640 1-499): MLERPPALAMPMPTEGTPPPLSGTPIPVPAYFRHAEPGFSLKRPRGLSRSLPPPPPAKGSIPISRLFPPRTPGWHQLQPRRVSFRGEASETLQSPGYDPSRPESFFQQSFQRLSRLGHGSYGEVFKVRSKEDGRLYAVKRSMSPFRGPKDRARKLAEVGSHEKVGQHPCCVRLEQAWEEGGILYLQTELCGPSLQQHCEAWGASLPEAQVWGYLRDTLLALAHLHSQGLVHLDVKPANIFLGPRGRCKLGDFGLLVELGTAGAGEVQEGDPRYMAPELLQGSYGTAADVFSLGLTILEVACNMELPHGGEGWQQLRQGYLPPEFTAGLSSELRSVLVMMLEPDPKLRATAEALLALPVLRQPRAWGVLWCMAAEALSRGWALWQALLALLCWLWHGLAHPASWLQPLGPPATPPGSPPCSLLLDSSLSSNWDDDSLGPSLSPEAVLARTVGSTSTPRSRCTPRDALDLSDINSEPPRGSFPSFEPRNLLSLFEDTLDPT
Outline: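 Compound binding to Myt1 kinase was assessed using the LanthaScreen Eu Kinase Binding Assay. This europium-based binding format was applied to quantify how strongly each compound bound to the Myt1 enzyme, and the binding affinity was reported for each compound as an IC50 value.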

[3] = target: T3, Myt1 kinase (CDK1 Thr14 phosphorylation in DAOY medulloblastoma cells) (Homo sapiens, UniProt Q99640); assay: AlphaLISA assay, Myt1 kinase target engagement (phospho-CDK1 Thr14) in DAOY cells; assay type: cell-based; settings: 4 h treatment, read-out: CDK1 Thr14 Phosphorylation EC50
T3 construct: pCDK1 Thr14 AlphaLISA read-out
T3 sequence (Q99640 1-499): T2 sequence (Q99640 1-499)
Outline: (§1)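 Cells seeded at 10,000 (DAOY) or 20,000 (ACHN) per well, treated 24 h later for 4 h with compound at 7–5000 nM. Lysates analysed by AlphaLISA SureFire Ultra phospho-CDK1 (Thr14) with donor/acceptor beads; EC50 from dose-response curves.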

[4] = target: T4, Wee1A kinase (CDK1 Tyr15 phosphorylation in ACHN renal cell carcinoma cells) (Homo sapiens, UniProt P30291); assay: High-content imaging of pCdk1 Y15, Wee1A kinase target engagement in ACHN cells; assay type: cell-based; settings: 4 h treatment, nuclear positivity for pCdk1 Y15 vs DMSO control, read-out: CDK1 Tyr15 Phosphorylation EC50
T4 construct: pCDK1 Tyr15 immunofluorescence read-out
T4 sequence (P30291 whole entry): as the sequence (P30291 whole entry) above
Outline: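 EC50 values come from the per-well fraction of cells with nuclear pCdk1 Y15 staining, normalised to DMSO control, by automated immunofluorescence imaging. Cells were ACHN renal carcinoma, treated 4 h with compound at 7–5,000 nM or 0.3–200 nM.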

[5] = test system: ACHN cells; assay: Cell Titer Glo viability assay, ACHN cells; assay type: cell-based; settings: Homo sapiens, 144 h, absolute EC50
Outline: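 Cells grown in MEM with 10% FCS were seeded at 500 (A427), 400 (ACHN) or 250 (DAOY) per well and treated the next day with compound at 17 to 10 000 nM. Viability relative to untreated control was read at 144 h by CellTiter-Glo 2.0.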

[6] = test system: DAOY cells; assay: Cell Titer Glo viability assay, DAOY cells; assay type: cell-based; settings: Homo sapiens, 144 h, absolute EC50
Experimental: Each of an ACHN renal cell carcinoma cell line (ATCC) and a DAOY medulloblastoma cell line, and an A427 lung cancer line were cultured in Minimum Essential Medium Eagle supplemented with 10% fetal calf serum (Sigma), 1% Penicillin-Streptomycin and 10 mM HEPES buffer (HyClone). Cell cultures were kept in a humidified incubator at 37 °C and 5% CO2. Cells were routinely tested for Mycoplasma contamination.
ACHN cells, DAOY cells, or A427 cells were seeded at a density of 400, 250, or 500 cells per well respectively, in tissue culture treated 384 well plates (Corning Costar). After overnight incubation, cells were treated with drugs at concentrations ranging from 17 to 10 000 nM. Viability compared to untreated control was assessed at 144 h using Cell Titer Glo assay 2.0 (Promega). […] “NT” means the compounds was not tested in the indicated cells.

[7] = target: T5, Myt1 kinase (CDK1 Thr14 phosphorylation in ACHN renal cell carcinoma cells) (Homo sapiens, UniProt Q99640); assay: AlphaLISA assay, Myt1 kinase target engagement (phospho-CDK1 Thr14) in ACHN cells; assay type: cell-based; settings: ACHN cells (marked *); 4 h treatment
T5 construct: pCDK1 Thr14 AlphaLISA read-out
T5 sequence (Q99640 1-499): T2 sequence (Q99640 1-499)
Outline: as §1

| Compound | pIC50 [1] | pIC50 [2] | pEC50 [3] | pEC50 [4] | pEC50 [5] | pEC50 [7] | pEC50 [6] |
| --- | --- | --- | --- | --- | --- | --- | --- |
| C=CCn1c(=O)c2cnc(Nc3ccc4ncsc4c3)nc2n1-c1cccc(OC2CCN(C)CC2)n1 [Compound 303, 2-allyl-6-(1,3-benzothiazol-6-ylamino)-1-[6-(1-methyl-4-piperidyloxy)-2-pyridyl]-1,2-dihydro-3H-1,2,5,7-tetraazainden-3-one] | > 8.00 | > 7.70 | 6.30 to 6.70 | > 7.00 | ≥ 7.00 |  | 6.30 to 7.00 |
| C=CCn1c(=O)c2cnc(Nc3ccc4c(cnn4C(C)C)c3)nc2n1-c1cccc(OC2CCN(C)CC2)n1 [Compound 248, 2-allyl-6-(1-isopropyl-1H-indazol-5-ylamino)-1-[6-(1-methyl-4-piperidyloxy)-2-pyridyl]-1,2-dihydro-3H-1,2,5,7-tetraazainden-3-one] | > 8.00 | > 7.70 | > 6.70 | > 7.00 | ≥ 7.00 |  | ≥ 7.00 |
| C=CCn1c(=O)c2cnc(Nc3ccc4c(cnn4C)c3)nc2n1-c1cccc(OC2CCNCC2)n1 [Compound 106, 2-allyl-6-(1-methyl-1H-indazol-5-ylamino)-1-[6-(4-piperidyloxy)-2-pyridyl]-1,2-dihydro-3H-1,2,5,7-tetraazainden-3-one] | > 8.00 | 7.00 to 7.70 | 6.30 to 6.70 | > 7.00 | ≥ 7.00 |  | 6.30 to 7.00 |
| CCn1c(=O)c2cnc(Nc3ccc(-c4cnn(C)c4)cc3)nc2n1-c1cccc(OC2CCN(C)CC2)n1 [Compound 277, 2-ethyl-1-[6-(1-methyl-4-piperidyloxy)-2-pyridyl]-6-[p-(1-methyl-4-pyrazolyl)phenylamino]-1,2-dihydro-3H-1,2,5,7-tetraazainden-3-one] | > 8.00 | 7.00 to 7.70 |  | > 7.00 | ≥ 7.00 | > 6.70 |  |
| C=CCn1c(=O)c2cnc(Nc3ccc4c(cnn4CC)c3)nc2n1-c1cccc(OC2CCNCC2)n1 [Compound 280, 2-allyl-6-((1-ethyl-1H-indazol-5-yl)amino)-1-(6-(piperidin-4-yloxy)pyridin-2-yl)-1,2-dihydro-3H-pyrazolo[3,4-d]pyrimidin-3-one] | > 8.00 | > 7.70 |  | > 7.00 | ≥ 7.00 | 6.30 to 6.70 |  |

Further lines, with some results ahead:

| pIC50 [1] | pIC50 [2] | pEC50 [3] | pEC50 [4] | pEC50 [5] | pEC50 [7] | Compound | pEC50 [6] |
| --- | --- | --- | --- | --- | --- | --- | --- |
| > 8.00 | > 7.70 | > 6.70 | > 7.00 | ≥ 7.00 |  | C=CCn1c(=O)c2cnc(Nc3ccc4ccoc4c3)nc2n1-c1cccc(OC2CCN(C)CC2)n1 [Compound 308, 2-allyl-6-(1-benzofuran-6-ylamino)-1-[6-(1-methyl-4-piperidyloxy)-2-pyridyl]-1,2-dihydro-3H-1,2,5,7-tetraazainden-3-one] | ≥ 7.00 |
| > 8.00 | 7.00 to 7.70 |  | > 7.00 | ≥ 7.00 | 6.00 to 6.30 | C=CCn1c(=O)c2cnc(Nc3ccc4c(cnn4CCCF)c3)nc2n1-c1cccc(OC2CCNCC2)n1 [Compound 397, 2-allyl-6-((1-(3-fluoropropyl)-1H-indazol-5-yl)amino)-1-(6-(piperidin-4-yloxy)pyridin-2-yl)-1,2-dihydro-3H-pyrazolo[3,4-d]pyrimidin-3-one] |  |
| > 8.00 | 7.00 to 7.70 |  | > 7.00 | ≥ 7.00 | 6.30 to 6.70 | C=CCn1c(=O)c2cnc(Nc3ccc4cn(C)nc4c3)nc2n1-c1cccc(OC2CCN(C)CC2)n1 [Compound 398, 2-allyl-6-((2-methyl-2H-indazol-6-yl)amino)-1-(6-((1-methylpiperidin-4-yl)oxy)pyridin-2-yl)-1,2-dihydro-3H-pyrazolo[3,4-d]pyrimidin-3-one] |  |
| > 8.00 | > 7.70 |  | > 7.00 | ≥ 7.00 | > 6.70 | C=CCn1c(=O)c2cnc(Nc3ccc4c(cnn4CCC)c3)nc2n1-c1cccc(OC2CCN(C)CC2)n1 [Compound 385, 2-allyl-1-[6-(1-methyl-4-piperidyloxy)-2-pyridyl]-6-(1-propyl-1H-indazol-5-ylamino)-1,2-dihydro-3H-1,2,5,7-tetraazainden-3-one] |  |
